Data from PubChem BioAssay (NCI).
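The concentration for 50% growth inhibition is given as GI50. Definition used: TGI = concentration required for complete inhibition of growth.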

Legend:
Test in all cases: NCI-60 cell line screen, 384-well format
MALME-3M melanoma = test system: MALME-3M melanoma
HOP-92 NSCLC = test system: HOP-92 NSCLC
A498 renal = test system: A498 renal
NCI-H322M lung = test system: NCI-H322M lung
NCI-H23 lung = test system: NCI-H23 lung
A549 NSCLC = test system: A549 NSCLC
SF-268 CNS = test system: SF-268 CNS
NCI-H460 NSCLC = test system: NCI-H460 NSCLC
MOLT-4 leukemia = test system: MOLT-4 leukemia
SK-MEL-28 melanoma = test system: SK-MEL-28 melanoma
DU-145 prostate = test system: DU-145 prostate
MCF7 breast = test system: MCF7 breast
MDA-MB-231 breast = test system: MDA-MB-231 breast
UACC-257 melanoma = test system: UACC-257 melanoma
SF-295 CNS = test system: SF-295 CNS
RXF 393 renal = test system: RXF 393 renal
RPMI-8226 leukemia = test system: RPMI-8226 leukemia
UACC-62 melanoma = test system: UACC-62 melanoma
CCRF-CEM leukemia = test system: CCRF-CEM leukemia
NCI-H226 lung = test system: NCI-H226 lung
HS 578T breast = test system: HS 578T breast
UO-31 renal = test system: UO-31 renal
SK-OV-3 ovarian = test system: SK-OV-3 ovarian
MDA-MB-435 melanoma = test system: MDA-MB-435 melanoma
OVCAR-8 ovarian = test system: OVCAR-8 ovarian
NCI-H522 lung = test system: NCI-H522 lung
OVCAR-4 ovarian = test system: OVCAR-4 ovarian
786-0 renal = test system: 786-0 renal
COLO 205 colon = test system: COLO 205 colon
SN12C renal = test system: SN12C renal
HCT-116 colon = test system: HCT-116 colon
M14 melanoma = test system: M14 melanoma
SW-620 colon = test system: SW-620 colon
BT-549 breast = test system: BT-549 breast
HOP-62 NSCLC = test system: HOP-62 NSCLC
SNB-19 CNS = test system: SNB-19 CNS
KM12 colon = test system: KM12 colon
SNB-75 CNS = test system: SNB-75 CNS
SR leukemia = test system: SR leukemia
HCC-2998 colon = test system: HCC-2998 colon
MDA-MB-468 breast = test system: MDA-MB-468 breast
OVCAR-3 ovarian = test system: OVCAR-3 ovarian
HL-60(TB) leukemia = test system: HL-60(TB) leukemia
U251 glioblastoma = test system: U251 glioblastoma
HT29 colon = test system: HT29 colon
IGROV1 ovarian = test system: IGROV1 ovarian
SF-539 CNS = test system: SF-539 CNS
TK-10 renal = test system: TK-10 renal
PC-3 prostate = test system: PC-3 prostate
T-47D breast = test system: T-47D breast

**Q.** Which results are given for CNC(=O)c1nn(C)c2c1C(C)(C)Cc1cnc(Nc3cccc(N4CCN(C)CC4)c3)nc1-2?
**A.** GI50 (MALME-3M melanoma): 253 nM; TGI (MALME-3M melanoma): 2030 nM; GI50 (HOP-92 NSCLC): 199 nM; TGI (HOP-92 NSCLC): > 100 µM; GI50 (A498 renal): 46.6 nM; TGI (A498 renal): 12.3 µM; GI50 (NCI-H322M lung): 523 nM; TGI (NCI-H322M lung): 11.2 µM; GI50 (NCI-H23 lung): 157 nM; TGI (NCI-H23 lung): 895 nM; GI50 (A549 NSCLC): 278 nM; TGI (A549 NSCLC): 12.8 µM; GI50 (SF-268 CNS): 536 nM; TGI (SF-268 CNS): 2270 nM; GI50 (NCI-H460 NSCLC): 89.3 nM; TGI (NCI-H460 NSCLC): 5.35 µM; GI50 (MOLT-4 leukemia): 130 nM; TGI (MOLT-4 leukemia): 317 nM; GI50 (SK-MEL-28 melanoma): 1080 nM; TGI (SK-MEL-28 melanoma): 4.01 µM; GI50 (DU-145 prostate): 522 nM; TGI (DU-145 prostate): 10.5 µM; GI50 (MCF7 breast): 345 nM; TGI (MCF7 breast): 11.4 µM; GI50 (MDA-MB-231 breast): 251 nM; TGI (MDA-MB-231 breast): 43.6 µM; GI50 (UACC-257 melanoma): 1160 nM; TGI (UACC-257 melanoma): 4.3 µM; GI50 (SF-295 CNS): 375 nM; TGI (SF-295 CNS): 3.9 µM; GI50 (RXF 393 renal): 122 nM; TGI (RXF 393 renal): 2140 nM; GI50 (RPMI-8226 leukemia): 95.4 nM; TGI (RPMI-8226 leukemia): 253 nM; GI50 (UACC-62 melanoma): 206 nM; TGI (UACC-62 melanoma): 2260 nM; GI50 (CCRF-CEM leukemia): 252 nM; TGI (CCRF-CEM leukemia): 1210 nM; GI50 (NCI-H226 lung): 251 nM; TGI (NCI-H226 lung): 4.6 µM; GI50 (HS 578T breast): 148 nM; TGI (HS 578T breast): 1310 nM; GI50 (UO-31 renal): 235 nM; TGI (UO-31 renal): 2190 nM; GI50 (SK-OV-3 ovarian): 42.2 nM; TGI (SK-OV-3 ovarian): 1290 nM; GI50 (MDA-MB-435 melanoma): 612 nM; TGI (MDA-MB-435 melanoma): 11.3 µM; GI50 (OVCAR-8 ovarian): 1450 nM; TGI (OVCAR-8 ovarian): 17.1 µM; GI50 (NCI-H522 lung): 153 nM; TGI (NCI-H522 lung): 436 nM; GI50 (OVCAR-4 ovarian): 2260 nM; TGI (OVCAR-4 ovarian): 10.6 µM; GI50 (786-0 renal): 309 nM; TGI (786-0 renal): 10.9 µM; GI50 (COLO 205 colon): 416 nM; TGI (COLO 205 colon): 9.35 µM; GI50 (SN12C renal): 198 nM; TGI (SN12C renal): 1740 nM; GI50 (HCT-116 colon): 123 nM; TGI (HCT-116 colon): 11.7 µM; GI50 (M14 melanoma): 124 nM; TGI (M14 melanoma): 3.59 µM; GI50 (SW-620 colon): 391 nM; TGI (SW-620 colon): 12.6 µM; GI50 (BT-549 breast): 276 nM; TGI (BT-549 breast): 2040 nM; GI50 (HOP-62 NSCLC): 357 nM; TGI (HOP-62 NSCLC): 7.18 µM; GI50 (SNB-19 CNS): 414 nM; TGI (SNB-19 CNS): 24.1 µM; GI50 (KM12 colon): 33.7 nM; TGI (KM12 colon): 10.6 µM; GI50 (SNB-75 CNS): 216 nM; TGI (SNB-75 CNS): 2170 nM; TGI (SR leukemia): 57.3 nM; GI50 (HCC-2998 colon): 433 nM; TGI (HCC-2998 colon): 6.56 µM; GI50 (MDA-MB-468 breast): 463 nM; TGI (MDA-MB-468 breast): 1830 nM; GI50 (OVCAR-3 ovarian): 167 nM; TGI (OVCAR-3 ovarian): 741 nM; GI50 (HL-60(TB) leukemia): 84.2 nM; TGI (HL-60(TB) leukemia): 1630 nM; GI50 (U251 glioblastoma): 437 nM; TGI (U251 glioblastoma): 12.7 µM; GI50 (HT29 colon): 886 nM; TGI (HT29 colon): 3.76 µM; GI50 (IGROV1 ovarian): 62.4 nM; TGI (IGROV1 ovarian): 616 nM; GI50 (SF-539 CNS): 405 nM; TGI (SF-539 CNS): 3.42 µM; GI50 (TK-10 renal): 336 nM; TGI (TK-10 renal): 10.4 µM; GI50 (PC-3 prostate): 185 nM; TGI (PC-3 prostate): 11.2 µM; GI50 (T-47D breast): 1610 nM; TGI (T-47D breast): 13.5 µM
